Source: article PMC9138545, “Incorporation of Oxidized Phenylalanine Derivatives into Insulin Signaling Relevant Proteins May Link Oxidative Stress to Signaling Conditions Underlying Chronic Insulin Resistance” (Biomedicines, 2022)
Entries after “also recorded” stand apart in the source; their conditions may differ.

What was measured:
p-IRS-1 in podocytes = experiment: Immunofluorescence of p-IRS-1 in insulin-treated podocytes; assay type: cell-based, human; conditions: 400 nmol/l insulin for 10 min; for p-IRS-1 intensity: vs. p-Tyr
Experimental: (§1) The conditionally immortalized human podocyte cell line (provided by Moin Saleem, University of Bristol, UK) was cultured in RPMI1640 medium (R8756, Sigma Aldrich, Budapest, Hungary) supplemented with 10% heat-inactivated FBS (16170-078, Gibco, Budapest, Hungary), insulin-transferrin-selenium supplement (41400-045, Gibco), 100 U/mL penicillin, 0.1 mg/mL streptomycin (P4333, Sigma), and […] (equimolar to the original p-Tyr content of the medium) para-, meta-, or ortho-Tyr. The cells were grown at 33 °C 5% CO2, and when they reached 40–60% confluency they were transferred to 37 °C to differentiate. Following the thermoswitching, cells were kept on RPMI1640 medium containing 2% FBS, antibiotics, and different tyrosines. Before every treatment, cells were incubated in serum-deprived medium overnight.
(§2) In a 6-well plate, 104 cells were cultured on glass coverslips washed with alcohol and dried under UV light. The podocyte cells were grown in RPMI1640 medium supplemented with 10% heat-inactivated FBS at 33 °C, 5% CO2. When they reached 60% confluence, the medium was changed to RPMI1640 medium containing 2% FBS and 112.05 nM of the different tyrosine isoforms, then the plates were transferred to 37 °C, 5% CO2 to allow the cells to differentiate. The different tyrosine isoforms were added to the maintenance medium. The cells were serum deprived overnight, then incubated with 400 nmol/l insulin for 10 min. After removal of the medium, the coverslips were washed twice with PBS. The cells were fixed at room temperature in 2% paraformaldehyde and 4% sucrose for 8 min, then permeabilized using 0.3% Trion X-100 in 1xPBS for 20 min and blocked in 2.5% BSA for 45 min [45]. The primary antibody was diluted in 1xPBS, and the cells were incubated in it for 60 min in humid conditions. The antibodies we used were mouse anti-WT1 antibody (H-1) (1:100, Santa Cruz Biotechnology, Dallas, TX, USA), chicken anti-vimentin antibody (1:100, Abcam), rabbit anti-glucose transporter GLUT4 antibody (1:100, Abcam, Cambridge, UK), mouse Insulin Receptor Substrate-1 antibody (1:100, Invitrogen, Waltham, MA, USA), and rabbit anti-phospho-Insulin Receptor Substrate-1 (pTyr612) antibody (1:10, Sigma). Coverslips were washed in PBS three times for 5 min in PBS and incubated in the fluorophore-conjugated secondary antibodies anti-goat, anti-chicken, secondary antibody Alexa fluor 647, anti-rabbit Alexa fluor 350, and anti-mouse Alexa Fluor 488 (1:10, Invitrogen) for 60 min. Samples were then washed in PBS three times for 5 min and mounted in Vectashield (Vector Laboratories). Images were taken with a Nikon Eclipse Ti2 microscope.

erythroblasts = conditions: ref [43]; cited from earlier work
Source text: Furthermore, m- and o-Tyr may have a role beyond being markers ROS attack. […] For example, we have described that patients on renal replacement therapy show a connection between plasma levels of o-Tyr and erythropoietin (EPO) resistance. In a further set of experiments, m- and o-Tyr in ...

[1] = tested on: GLUT4 and vimentin in podocytes; experiment: Immunofluorescence of GLUT4 and vimentin in insulin-treated podocytes; assay type: cell-based, human; conditions: for GLUT4 membrane localization: 400 nmol/l insulin for 10 min
Experimental: as §1, §2

Akt (Ser473) = experiment: Western blot, activating phosphorylation of Akt (Ser473); assay type: cell-based; conditions: n = 4–8; for insulin-induced Akt phosphorylation: 400 nmol/L insulin, adipocytes, HEK cells, podocytes, macrophages; for basal Akt phosphorylation: without insulin, cells grown on o- or m-Tyr medium
Experimental: Early passages of mouse embryo fibroblast (3T3-L1) (ATCC, Manassas, VA, US) were cultured in Dulbecco’s modified Eagle medium (DMEM, Sigma Aldrich, Budapest, Hungary, CAT number: D6046; Invitrogen, Waltham, MA, USA, CAT number: 41966-029) supplemented with 100 U/mL penicillin, 0.1 mg/mL streptomycin (Gibco, Budapest, Hungary, CAT number: 15070-063) and 10% heat-inactivated Fetal Bovine Serum (FBS, Gibco, CAT number: 16170-078), supplemented with 398 nM p-, m-, or o-Tyr (equimolar to the original p-Tyr content of the medium) purchased from Sigma (CAT number: para-Tyr: T8566, m-Tyr: T3629, o-Tyr: 93851). Media contained 25 or 5 mmol/L glucose (experiment dependent) pyruvate and L-glutamine. Cells were grown at 37 °C and 5% CO2. Adipocyte differentiation was achieved by DMEM supplemented with 10% FBS (Gibco, Csertex, Budapest, Hungary, CAT number: 10106-169) (FBS) and a […] insulin (Sigma Aldrich, Budapest, Hungary, CAT number: I 9278), […] isobuthylmethylxanthine (Sigma Aldrich, Budapest, Hungary, CAT number: I 5879), and 250 nmol/L dexamethasone (Sigma Aldrich, Budapest, Hungary, CAT number: 861871) containing cocktail. From day 4 onward, cultures were maintained in DMEM containing 1.5 μg/mL insulin and 10% FBS with a medium change every other day until experimental treatments were started. After 90% of the cell population reached the adipocyte phenotype, prior to all treatments, cells were incubated overnight in serum-deprived medium. Experimental treatment was performed in serum-deprived medium containing 200 or 400 nmol/L insulin, for 5 min.
as §1
HEK-293 immortalized cell line (ATCC, Manassas, VA, USA) of epithelial morphology and the J774A.1 mouse BALB/C monocyte-macrophage cell lines (91051511-1VL, Sigma Aldrich, Budapest, Hungary) were cultured in Petri dishes with a medium composed of Dulbecco’s modified Eagle’s medium (DMEM, Sigma Aldrich, Budapest, Hungary, CAT number: D6046, Invitrogen, CAT number: 41966-029), with a 10% heat-inactivated FBS supplementation (16170-078, Gibco), insulin-transferrin-selenium supplement (41400-045, Gibco, Budapest, Hungary,), 100 U/mL penicillin and 0.1 mg/mL streptomycin (P4333, Sigma) and 398 nM para (5 and 25 mmol/L), meta-, or ortho-Tyr (T8566, T3629, 93851, Sigma). Before treatment, cells were incubated in serum-deprived medium overnight as well. […]
The samples of lysates were vortexed and centrifuged (10 min, 13,000 rpm, at 4 °C). Protein content of the samples was determined by the Lowry method using bovine serum albumin as a standard. […]

NC(Cc1ccccc1O)C(=O)O (stereo not drawn) [o-Tyr, ortho-tyrosine]
membrane translocation of IRS-1 / p-IRS-1 (p-IRS-1 in podocytes): not characteristic | membrane translocation of IRS-1 / p-IRS-1 (p-IRS-1 in podocytes; listed as o-Ty): absent | p-IRS-1 intensity (p-IRS-1 in podocytes): lower; also recorded: the signal almost disappears | EPO-dependent proliferation of erythroblasts (erythroblasts): inhibited the EPO-dependent proliferation of erythroblasts, in a time- and dose-dependent manner | vimentin filaments [1]: thicker vimentin filaments | GLUT4 membrane localization [1]: not characteristic in o-Tyr treated cells, which shows rather a perinuclear localization | insulin-induced Akt phosphorylation (Akt (Ser473)): could not be further raised by insulin treatment | basal Akt phosphorylation (Akt (Ser473)): either unchanged or higher

N[C@@H](Cc1cccc(O)c1)C(=O)O [m-Tyr, meta-tyrosine]
membrane translocation of IRS-1 / p-IRS-1 (p-IRS-1 in podocytes): absent; also recorded: not characteristic | p-IRS-1 intensity (p-IRS-1 in podocytes): lower | EPO-dependent proliferation of erythroblasts (erythroblasts): inhibited the EPO-dependent proliferation of erythroblasts, in a time- and dose-dependent manner | vimentin filaments [1]: thicker vimentin filaments | GLUT4 membrane localization [1]: slightly visible | insulin-induced Akt phosphorylation (Akt (Ser473)): could not be further raised by insulin treatment | basal Akt phosphorylation (Akt (Ser473)): either unchanged or higher
